Patent US12643867B2, “Compositions and uses thereof” (University of Virginia Patent Foundation, priority 2017, dated 2026)

Tests used:
[1] = tested on: M3K2/M3K3 (Mitogen-activated protein kinase kinase kinase 2); assay: SILAC LC-MS ATP acyl phosphate probe competition, native kinases in HEK293T; assay type: binding, Homo sapiens; settings: site Lys2; ATP 1 mM; Ketanserin, Ritanserin 100 μM; RF001 1 mM
Procedure: Proteomes were diluted to 2 mg/ml in kinase buffer. The light and heavy proteomes (0.5 mg, 250 μL total reaction volume) were pre-treated with vehicle or compound, respectively (5 μL, DMSO (light) or 50× stock in DMSO (heavy)), mixed gently, and incubated at 25° C. for 30 min. […] After incubation, matched light and heavy proteomes were transferred and mixed in a 1:1 ratio in a two-dram vial containing 4:1:3 MeOH/CHCl3/H2O (2 mL MeOH, 500 AL CHCl3, 1.5 mL H2O) for extraction of proteins to remove excess probe, quickly vortexed, and centrifuged at 1,400×g for 3 min to pellet protein. Organic and aqueous layers were removed using a Pasteur pipette, and the protein pellet was transferred to a screw-top tube in 600 μL MeOH. A second extraction was performed by adding CHCl3 (150 μL) and H2O (600 μL) to each sample, vortexed, and centrifuged at 1,400×g for 3 min to pellet protein. Organic and aqueous layers were removed by pipetting. MeOH added to pellet (600 μL) and pellets were re-suspended by sonication (3×1 sec pulse, 20% amplitude) for a final extraction. Samples were then centrifuged at 17,000×g for 5 min to pellet protein and MeOH was removed by pipetting. The pellets were re-suspended in 10 M urea/25 mM ammonium bicarbonate ([…]), brought to a final volume of 1 mL with 25 mM ammonium bicarbonate, reduced with 10 mM DTT for 15 min at 65° C. allowed to cool, and then alkylated with 40 mM iodoacetamide for 30 min at 25° C. in the dark. To desalt the samples, each was transferred to a two-dram glass vial, and to the vial 4:1:2 MeOH/CHCl3/H2O (2 mL MeOH, 500 AL CHCl3, 1 mL H2O) was added. The vials were vortexed quickly, spun at 1.400×g for 3 min to pellet protein, and aqueous and organic layers were removed using a Pasteur pipette. The resulting protein pellet was transferred to a screw-top tube in 600 μL MeOH, and then CHCl3 (150 μL) and HO (600 μL) were added to extract protein a second time. […]
The peptide samples were analyzed by liquid chromatography-mass spectrometry. […]

[2] = tested on: A549 cells; assay: WST-1 Cell Proliferation Assay; assay type: cell-based; settings: for cell viability (WST-1), words: ritanserin, ketanserin 5-50 μM, staurosporine 1 μM
Procedure: (§1) WST-1 Cell Proliferation Assays. Tumor cells were plated in transparent tissue-culture treated 96-well plates at a density of 100,000 cells/mL (A549, H1650) or 200,000 cells/mL (H82) in a volume of 100 μL per well. Cells were treated with dimethyl sulfoxide (DMSO) vehicle or inhibitors dissolved in DMSO at the indicated concentrations (final DMSO concentration of 0.5%). Cells were allowed to grow for indicated times at 37° C. under 5% CO2. Afterwards, equal parts of WST-1 developer reagent and electron mediator solution were mixed and 10 μL of the resulting solution (‘WST-1 reagent’) were added to each well. Plates were shaken in an orbital shaker for 60 s and then returned to the incubator for two hrs. Plates were again shaken followed measurement of absorbance at 450 nm. Data were normalized to DMSO-treated wells and significance values determined with one-way ANOVA.

[3] = tested on: H1650 cells; assay: WST-1 Cell Proliferation Assay; assay type: cell-based; settings: for cell viability (WST-1), words: ritanserin, ketanserin 5-50 μM, staurosporine 1 μM
Procedure: as §1

[4] = tested on: H82 cells; assay: WST-1 Cell Proliferation Assay; assay type: cell-based; settings: for cell viability (WST-1), words: ritanserin, ketanserin 5-50 μM, staurosporine 1 μM
Procedure: as §1

[5] = tested on: A549 cells; assay: CaspaseGlo 3/7 assay; assay type: cell-based; settings: 24 hours
Procedure: (§2) Caspase Glo Assays. Assays were performed as directed by the manufacturer (Promega). Briefly, tumor cells were plated in black tissue-culture treated transparent-bottom 96 well plates at a density of 200,000 cells/mL (A549, H1650) or 400,000 cells/mL (H82) in a volume of 50 μL/well. Cells were treated with inhibitors at the indicated concentrations (final DMSO concentration of 0.5%) for 24 hrs at 37° C. under 5% CO2. Afterwards, 50 μL of the prepared CaspaseGlo reagent was added to each well. The reaction was allowed to proceed at 37° C. under 5% CO2 for 1 hr, at which point the cells were shaken in an orbital shaker at 500 rpm for 60 s and then luminescence was read for each well. Data were normalized to DMSO-treated wells and significance values determined with one-way ANOVA.

[6] = tested on: H1650 cells; assay: CaspaseGlo 3/7 assay; assay type: cell-based; settings: 24 hours
Procedure: as §2

[7] = tested on: H82 cells; assay: CaspaseGlo 3/7 assay; assay type: cell-based; settings: 24 hours
Procedure: as §2

Row | Structure (SMILES) | SILAC ratio, M3K2/M3K3 probe-modified peptide [1] | cell viability (WST-1), words [2] | cell viability (WST-1), words [3] | cell viability (WST-1), words [4] | caspase 3/7 activity [5] | caspase 3/7 activity [6] | caspase 3/7 activity [7] | cell death (WST-1) ([2]; 5 μM, two days) | cell death after 1 day (WST-1) ([2]; 25 μM, 1 day) [%] | inhibition at 25 µM ([2]; Homo sapiens, A549, 48 h, 25 μM, two days, read-out: inhibition of cell growth (WST-1)) [%] | cell death (WST-1) ([3]; 5 μM, two days) | cell death after 1 day (WST-1) ([3]; 25 μM, 1 day) [%] | inhibition at 25 µM ([3]; Homo sapiens, NCI-H1650, 48 h, 25 μM, two days, read-out: inhibition of cell growth (WST-1)) [%] | cell death (WST-1) ([4]; 5 μM, two days) [%] | cell death after 1 day (WST-1) ([4]; 25 μM, 1 day) [%] | inhibition at 25 µM ([4]; Homo sapiens, NCI-H82, 48 h, 25 μM, two days, read-out: inhibition of cell growth (WST-1)) [%]
1 | O=C(c1ccc(F)cc1)C1CCN(CCn2c(=O)[nH]c3ccccc3c2=O)CC1 [Ketanserin] | 1.1 | lack of activity | lack of activity | lack of activity | did not induce these effects | did not induce these effects | did not induce these effects |  |  |  |  |  |  |  |  | 
2 | Cc1nc2sccn2c(=O)c1CCN1CCC(=C(c2ccc(F)cc2)c2ccc(F)cc2)CC1 [Ritanserin] | 1.2 | Concentration-dependent decreases in viability | Concentration-dependent decreases in viability | Concentration-dependent decreases in viability | lower degree of activation | comparable activation of caspase 3/7 compared with staurosporine | comparable activation of caspase 3/7 compared with staurosporine | 5-15% | > 50 | > 70 | 5-15% | > 50 | > 70 | ~50 | > 50 | > 70
3 | Fc1ccc(C(=C2CCNCC2)c2ccc(F)cc2)cc1 [RF001, 4-(Bis(4-fluorophenyl)methylene) piperidine] | 1.0 |  |  |  |  |  |  |  |  |  |  |  |  |  |  | 
